Results taken from the supplement of paper PMC10307832.

Columns and labels:
Test in all cases: relative viability (nuclei count vs DMSO), 5 days (fraction); higher = more cells survive
Sulindac + Luminespib = compound: CC1=C(CC(=O)O)c2cc(F)ccc2/C1=C\c1ccc([S+](C)[O-])cc1 [Sulindac] + CCNC(=O)c1noc(-c2cc(C(C)C)c(O)cc2O)c1-c1ccc(CN2CCOCC2)cc1 [Luminespib] (partner 0.01 µM)
Method in brief: (§1)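 Lung cancer cell lines in 1536-well plates were dosed by pin tool the day after seeding, either with one drug alone or with a fixed anchor-drug dose plus five library-drug doses (not always all listed) in √10 steps. After 5 days, cells were fixed and their nuclei stained in one step (final 0.05% Triton X-100, 1% formaldehyde, 1 ug/ml Hoechst), then counted on 4× images. Relative viability is the nuclei count in treated wells divided by that in vehicle wells. Values are medians of duplicate plates.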

Sulindac + Crizotinib = compound: CC1=C(CC(=O)O)c2cc(F)ccc2/C1=C\c1ccc([S+](C)[O-])cc1 [Sulindac] + C[C@@H](Oc1cc(-c2cnn(C3CCNCC3)c2)cnc1N)c1c(Cl)ccc(F)c1Cl [Crizotinib] (partner 1 µM)
Method in brief: as §1

Sulindac + AZD7762 = compound: CC1=C(CC(=O)O)c2cc(F)ccc2/C1=C\c1ccc([S+](C)[O-])cc1 [Sulindac] + NC(=O)Nc1cc(-c2cccc(F)c2)sc1C(=O)N[C@H]1CCCNC1 [AZD7762] (partner 0.2 µM)
Method in brief: as §1

[1] = compound: CN[C@@H]1C[C@H]2O[C@@](C)([C@@H]1OC)n1c3ccccc3c3c4c(c5c6ccccc6n2c5c31)C(=O)NC4 [Staurosporine] + CS(=O)(=O)CCNCc1ccc(-c2ccc3ncnc(Nc4ccc(OCc5cccc(F)c5)c(Cl)c4)c3c2)o1 [Lapatinib] (partner 2 µM)
Method in brief: as §1

Cell Line	relative viability (Sulindac + Luminespib; first compound 0.08 µM)	relative viability (Sulindac + Luminespib; first compound 0.253 µM)	relative viability (Sulindac + Luminespib; first compound 2.53 µM)	relative viability (Sulindac + Luminespib; first compound 8 µM)	relative viability (Sulindac + Crizotinib; first compound 0.08 µM)	relative viability (Sulindac + Crizotinib; first compound 0.253 µM)	relative viability (Sulindac + Crizotinib; first compound 2.53 µM)	relative viability (Sulindac + Crizotinib; first compound 8 µM)	relative viability (Sulindac + AZD7762; first compound 0.08 µM)	relative viability (Sulindac + AZD7762; first compound 0.253 µM)	relative viability (Sulindac + AZD7762; first compound 0.8 µM)	relative viability (Sulindac + AZD7762; first compound 2.53 µM)	relative viability (Sulindac + AZD7762; first compound 8 µM)	relative viability ([1]; first compound 0.005 µM)	relative viability ([1]; first compound 0.01581 µM)	relative viability ([1]; first compound 0.05 µM)	relative viability ([1]; first compound 0.1581 µM)	relative viability ([1]; first compound 0.5 µM)	relative viability (Sulindac + Luminespib; first compound 0.8 µM)	relative viability (Sulindac + Crizotinib; first compound 0.8 µM)
NCI-H1651	1.08	0.897	0.8	0.948	0.969	0.86	0.93	0.929	0.516	0.508	0.318	0.492	0.506	0.708	0.413	0.356	0.107	0.0625		
HARA	0.731	1	0.671	0.963	1.1	1.29	1.21	1.07	0.339	0.392	0.288	0.294	0.307	0.485	0.327	0.308	0.118	0.0844	0.77	
NCI-H1944	0.753	0.838	0.864	0.963	0.972	1.29	0.952	1.24	0.519	0.382	0.526	0.512	0.551	0.849		0.566	0.435	0.304	0.706	0.826
NCI-H2405	0.455	0.647	0.752	0.754	0.907	0.899	0.85	0.939	0.86	0.811	0.642	0.691	0.995	0.395	0.148	0.113	0.0819	0.0797	0.686	0.701
201T	1.13	1.09	1.04	1.09	0.954	1.03	1.01	1.13	0.647	0.628	0.868	0.661	0.596	1.04	0.957	0.948	0.895	0.637	1.07	1.08
RERF-LC-KJ	1.06	1.47	1.23	1.64	0.816	0.903	0.891	0.914	1.41	1.18	0.632	0.993	1.05	0.878	0.821	0.734	0.424	0.245	1.18	0.853
NCI-H1734	0.146	0.186	0.203	0.23	0.658	0.754	0.703	0.787	0.646	0.587	0.519	0.621	0.73	0.958	0.322	0.31	0.121	0.136		0.583
PC-14	0.164	0.152	0.152	0.127	0.942	0.891	0.911	1.02	0.377	0.315	0.35	0.284	0.364	0.293	0.247	0.0956	0.0886	0.0786	0.15	0.726
NCI-H1915	1.07	0.883	0.909	0.813	1.25	1.02	0.903	0.947	0.703	0.734	0.645	0.664	0.761	1.05		0.584	0.272	0.192		0.676
HOP-62	1.34	0.974	0.977	0.942	1.06	1.25	0.843	0.987	0.577	0.565	0.556	0.717	0.953	1.27	0.293	0.103	0.0855	0.0849	0.708	1.06
NCI-H1975	0.189	0.205	0.174	0.267	1.06	1.07	1.01	1.14	0.868	0.715	0.699	0.695	0.819	0.572	0.232	0.227	0.13	0.0954	0.159	
BEN	0.23	0.373	0.472	0.326	0.994	0.903	0.984	1.13	0.728	0.727	0.598	0.604	0.776	0.656	0.449	0.381	0.198	0.207	0.597	0.648
NCI-H1437	1.33	1.1	1.25	1.25	1.15	0.992	0.978	1.04	1.18	1.12	1.1	1.14	1.11	0.698	0.346	0.453	0.152	0.0978	0.912	0.58
EMC-BAC-2	1.04	1.23	1.23	1.22	0.788	0.778	0.779	0.91	1.22	1.2	0.849	1.04	1.35	0.427	0.498	0.178	0.188	0.167	0.802	0.585
LXF-289	0.821	0.847	0.715	0.611	0.844	0.868	0.85	0.855	1.15	1.15	0.987	1.21	1.24	0.725		0.389	0.109	0.0903	0.58	0.776
LOU-NH91	0.322	0.322	0.328	0.401	0.978	0.768	0.688	0.75	0.781	0.809	0.627	0.742	0.817	0.861	0.582	0.539	0.275	0.292	0.314	0.697
NCI-H2347	0.302	0.478	0.411	0.519	0.77	0.688	0.812	0.819	0.711	0.778	0.653	0.737	0.817	0.457	0.348	0.352	0.319	0.407		0.684

Cell Line	relative viability (Sulindac + Luminespib; first compound 0.08 µM)	relative viability (Sulindac + Luminespib; first compound 0.253 µM)	relative viability (Sulindac + Luminespib; first compound 2.53 µM)	relative viability (Sulindac + Luminespib; first compound 8 µM)	relative viability (Sulindac + Crizotinib; first compound 0.08 µM)	relative viability (Sulindac + Crizotinib; first compound 0.253 µM)	relative viability (Sulindac + Crizotinib; first compound 2.53 µM)	relative viability (Sulindac + Crizotinib; first compound 8 µM)	relative viability (Sulindac + AZD7762; first compound 0.08 µM)	relative viability (Sulindac + AZD7762; first compound 0.253 µM)	relative viability (Sulindac + AZD7762; first compound 0.8 µM)	relative viability (Sulindac + AZD7762; first compound 2.53 µM)	relative viability (Sulindac + AZD7762; first compound 8 µM)	relative viability ([1]; first compound 0.005 µM)	relative viability ([1]; first compound 0.01581 µM)	relative viability ([1]; first compound 0.05 µM)	relative viability ([1]; first compound 0.1581 µM)	relative viability ([1]; first compound 0.5 µM)	relative viability (Sulindac + Luminespib; first compound 0.8 µM)	relative viability (Sulindac + Crizotinib; first compound 0.8 µM)
HCC-827	0.566	0.916	0.606	0.412	0.927	0.98	0.914	0.956	0.218	0.222	0.198	0.204	0.244	0.223	0.186	0.182	0.125	0.163	0.475	0.942
NCI-H727	0.223	0.338	0.299	0.443	0.964	0.779	0.856	1.03	0.575	0.643	0.473	0.582	0.616	0.666	0.324	0.307	0.388	0.181		0.782
CAL-12T	0.556	0.3	0.485	0.524	0.689	0.661	0.629	0.797	0.586	0.717	0.497	0.622	0.708	0.356	0.198	0.214	0.192	0.194	0.311	0.563
PC-3 [JPC-3]	0.663	0.799	0.656	0.771	1.09	1.06	1.02	1.02	0.855	0.805	0.697	0.715	1.06	0.46		0.429	0.287	0.307	0.528	0.959
NCI-H23	0.174		0.234	0.243	0.39	0.643	0.689	0.504	0.294	0.22	0.273	0.256	0.232	0.886	0.184	0.357	0.172	0.134		0.359
NCI-H838	0.231	0.277	0.211	0.307	1.12	0.781	0.903	0.884	1.05	0.976	0.843	0.886	1.04	0.25	0.164	0.211	0.134	0.103	0.243	0.674
NCI-H1666	1.04	1.03	1	1.1		1.03	0.949	1.17	0.869	0.878	0.776	0.847	0.945	0.573	0.45	0.425	0.267	0.208	0.955	0.942
HCC-44	0.969	1.08	1.05	1.25	0.892	0.88	0.9	0.861	1.04	1.01	1.09	0.979	0.942	0.956		0.208	0.0947	0.0895		0.768
A-427	1.05	0.835	0.781	1.07	0.892	0.888	0.894	0.896	0.742	0.692	1.01	0.727	0.808	0.967	0.245	0.56	0.303	0.175	1.06	0.881
NCI-H460	0.0451	0.0347	0.0255	0.0267	1.41	1.07	0.833	1.19	0.984	0.639	0.812	0.64	0.846	1.08	0.389	0.455	0.0071	0.0093	0.0378	
ABC-1	0.397	0.415		0.71	1.44	1.03	1.19	1.6	1.16		0.636	0.682	0.751	0.953	0.799	0.608	0.339	0.502	0.687	0.809
LK-2	0.2	0.18		0.167	0.185	0.243		0.216	0.456	0.469	0.318	0.465	0.414	1.31	0.924		0.346	0.178		
NCI-H2085	0.39	0.414	0.428	0.36	0.735	0.944	0.772	0.953	0.904	0.988	0.834	0.945	0.95	0.65	0.391	0.463	0.351	0.243	0.426	0.779
NCI-H650	0.796	0.87	0.644	0.935	0.788	0.73	0.637	0.914	1.03	0.899	0.766	0.914	0.978	0.503	0.393	0.286	0.245	0.184	0.659	0.793
NCI-H3122	0.136	0.0774	0.0935	0.105	0.282	0.251	0.232	0.259	1.2	1.08	1.01	0.968	0.947	1.01	0.318	0.988	0.665	0.685	0.0891	0.266
NCI-H596	1.08	0.99	1	0.993	0.896	1.05	0.991	1.04	1.06	1.16		1.23	1.27	1.08	0.749	0.419	0.181	0.157	0.915	0.913
